Assay results from patent US8076363B2, “Isothiazolone-containing preservative with improved effectiveness” (Air Liquide Sante (International), priority 2005, dated 2011).

How the values were obtained:
[1] = system: mixed suspension of test germs (bacteria, yeasts, fungi); assay: Preserving effect under repeated inoculation in humectant formulation 6940; assay type: cell-based; set-up: key: −=no growth; ++=moderate growth; +++=massive growth
Procedure: B) Humectant Formulation 6940
In accordance with Seppic formulation procedure, without preservative.
Using the described method, the effectiveness of chemical preservatives is tested with regard to the pack preservation for cosmetic formulations. For this purpose, in various experimental batches, the preservatives to be investigated are added to the unpreserved samples in various concentrations. A continuous germ burden is achieved by periodically inoculating the experimental batches. In parallel to the inoculation, streaks of each of the individual batches are in each case made immediately beforehand. Assessment is made by reference to the microbial growth of the streaks.
The bacteria are streaked uniformly over the entire surface of a CS nutrient medium using a sterile glass rod and incubated for 24 h at 30±1° C. The yeast C. albicans is streaked using a sterile glass rod on a Sabouraud nutrient medium and incubated for 48 h at 30±1° C.
The fungi A. niger and P. funiculosum are streaked using a sterile glass rod on one (A. niger) or two (P. funiculosum) Sabouraud plates (comprising 100 μg/ml of gentamycin and 50 μg/ml of chloramphenicol) and incubated for 7 to 14 days at 25±2° C.
To prepare the mixed suspensions, the bacteria, per strain one plate, are rinsed off with 5 ml of a sterile 0.85% NaCl solution per CSA plate, (sterile) filtered through a sterile glass funnel containing glass wool and made up to 150 ml with 0.85% NaCl solution. This bacteria suspension has a titre of ˜10^10 CFU/ml.
The yeast C. albicans is likewise rinsed off with 10 ml of sterile 0.85% NaCl solution from a Sabouraud plate and (sterile) filtered through a sterile glass funnel containing glass wool. 10 ml of each of the fungi suspensions (A. niger and P. funiculosum) prepared as described above are added to this suspension. 3 ml of the bacteria suspension prepared as described above (titre ˜10^10 CFU/ml) are added. The resulting mixed suspension is made to 150 ml with sterile 0.85% NaCl solution.
The bacteria titre of the mixed suspension is ˜10^8 CFU/ml. The titre for C. albicans in the mixed suspension is ˜10^8 CFU/ml. The titre for A. niger and P. funiculosum in the mixed suspension is ˜10^6 CFU/ml.
In separate batches, 25 or 50 g of the material to be preserved are in each case admixed with varying concentrations of the preservative to be investigated. The growth control used in each case is an unpreserved product sample.
The test batches are streaked onto CS and Sabouraud nutrient media once per week, the first streaking being carried out directly prior to reinoculation; these batches are then inoculated with the mixed suspension (in the case of 25 g samples with 0.1 ml, in the case of 50 g samples with 0.2 ml). The inoculated samples are incubated at 25° C.±2° C. over the entire experimentation period.
The microbial growth of the streaks incubated at 25° C.±2° C. is assessed after 3 to 4 days. To be on the safe side, negative streaks are observed for a further 2 days and reassessed. The preserving effect of the individual product concentrations is assessed in a semiquantitative method by means of the growth of the individual streaks according to the grading from “−” via “+” to “+++”. The test is usually carried out over 6 inoculation cycles or terminated after massive growth (+++) on two occasions.
If even after five successive inoculation cycles growth can be detected neither in the preserved samples nor in the unpreserved product sample (blank value), then the inoculation in the sixth inoculation cycle is carried out with five times the amount of the mixed suspension (0.5 ml in the case of 25 g samples, 1 ml in the case of 50 g samples).
A preservative is considered good if it exists under the laboratory conditions given above for a period of 6 weeks without germ infestation of the sample batches, i.e. even after the sixth inoculation, no microbial growth can be detected.

[2] = system: mixed suspension of test germs (bacteria, yeasts, fungi); assay: Preserving effect under repeated inoculation in the standard gel; assay type: cell-based; set-up: key: −=no growth; −=slight growth; ++=moderate growth; +++=massive growth; conditions: preservative 0.1%
Procedure: CARBOPOL is dispersed in glycerol. In batches, the water and then NaOH are added thereto. The gel immediately becomes thick.
Using the described method, the effectiveness of chemical preservatives is tested with regard to the pack preservation for cosmetic formulations. For this purpose, in various experimental batches, the preservatives to be investigated are added to the unpreserved samples in various concentrations. A continuous germ burden is achieved by periodically inoculating the experimental batches. In parallel to the inoculation, streaks of each of the individual batches are in each case made immediately beforehand. Assessment is made by reference to the microbial growth of the streaks. […]
The microbial growth of the streaks incubated at 25° C.±2° C. is assessed after 3 to 4 days. […] The preserving effect of the individual product concentrations is assessed in a semiquantitative method by means of the growth of the individual streaks according to the grading from “−” via “+” to “+++”. […]
If even after five successive inoculation cycles growth can be detected neither in the preserved samples nor in the unpreserved product sample (blank value), then the inoculation in the sixth inoculation cycle is carried out with five times the amount of the mixed suspension (0.5 ml in the case of 25 g samples, 1 ml in the case of 50 g samples). […]

CCCCC(CC)COCC(O)CO (centres unmarked) [SENSIVA, 1-(2-ethylhexyl) glycerol ether]
microbial growth of the streaks ([1]; formulation 6940, preservative 0.1%, 4 days): − | microbial growth of the streaks ([1]; formulation 6940, preservative 0.1%, 10 days): +++ | microbial growth of the streaks ([1]; formulation 6940, preservative 0.1%, 17 days): +++ | microbial growth of the streaks ([1]; formulation 6940, preservative 0.2%, 4 days): − | microbial growth of the streaks ([1]; formulation 6940, preservative 0.2%, 10 days): +++ | microbial growth of the streaks ([1]; formulation 6940, preservative 0.2%, 17 days): +++ | microbial growth of the streaks ([1]; formulation 6940, preservative 0.3%, 4 days): − | microbial growth of the streaks ([1]; formulation 6940, preservative 0.3%, 10 days): +++ | microbial growth of the streaks ([1]; formulation 6940, preservative 0.3%, 17 days): +++ | microbial growth of the streaks ([2]; 10 days): +++ | microbial growth of the streaks ([2]; 17 days): +++
